Assay results taken from patent publication US20220054532A1, “VETERINARY COMPOSITIONS AND METHODS OF USE THEREFOR” (priority 2019, published 2022).

Columns and labels:
Assay type in all cases: in vivo
[1] = tested on: dogs suffering from cognitive dysfunction syndrome; experiment: Example 10: cognitive decline, Cognitive Dysfunction Screening Checklist (CBD Complex); settings: for Average Final Score: day 60, BID
From the text: (§1) This example examines the ability of embodiments of the invention versus Anipryl® to treat cognitive decline.
The patient group is twenty dogs suffering from cognitive dysfunction syndrome, as determined by the Cognitive Dysfunction Screening Checklist. See G. Landsberg et al., 2003 HANDBOOK OF BEHAVIOR PROBLEMS OF THE DOG AND CAT (Elsevier Science Limited) (2003). The twenty dogs are broken into five groups of four dogs. The first group receives Anipryl® as the sole active agent; the second group receives a composition comprising HMW HA as the sole active agent; the third group receives a composition comprising CBD as the sole active agent; the fourth group receives a composition comprising HMW HA and CBD Complex as the active agents; and the fifth group receives a composition comprising HMW HA, CBD Complex, nicotinamide adenine dinucleotide (“NAD”), and phosphatidylserine as the active agents.
(§2) Each composition is administered for a period of sixty (60) days, twice per day (“BID”). The owner completes the Checklist on days 0 (“Initial Score”), 15, 30, 45, and 60 (“Final Score”) of treatment.
Each group is evaluated and Checklist scores averaged. The following scores are observed and the results depicted in FIG. 10: […]

[2] = tested on: dogs suffering from cognitive dysfunction syndrome; experiment: Example 2: cognitive decline, Cognitive Dysfunction Screening Checklist; settings: for Average Final Score: day 60, BID
From the text: as §1
The patient group is twenty dogs suffering from cognitive dysfunction syndrome, as determined by the Cognitive Dysfunction Screening Checklist. See G. Landsberg et al., 2003 HANDBOOK OF BEHAVIOR PROBLEMS OF THE DOG AND CAT (Elsevier Science Limited) (2003). The twenty dogs are broken into five groups of four dogs. The first group receives Anipryl® as the sole active agent; the second group receives a composition comprising HMW HA as the sole active agent; the third group receives a composition comprising CBD as the sole active agent; the fourth group receives a composition comprising HMW HA and CBD as the active agents; and the fifth group receives a composition comprising HMW HA, CBD, nicotinamide adenine dinucleotide (“NAD”), and phosphatidylserine as the active agents.
as §2
Each group is evaluated and Checklist scores averaged. The following scores are observed and the results depicted in FIG. 2: […]

[3] = tested on: dogs suffering from GI-specific inflammation; experiment: Example 3: GI-specific inflammation, owner-rated symptom reduction (canine); settings: symptom reduction score 0 (no reduction) to 4 (resolution of symptoms)
From the text: (§3) This example examines the ability of embodiments of the invention versus Pepcid® to treat unwanted GI-specific inflammation characterized by gastritis, reflux, vomiting, diarrhea, and inappetence.
(§4) The first patient group is twenty dogs suffering from GI-specific inflammation. The second patient group is twenty cats suffering from GI-specific inflammation. Each patient group is broken into five groups of four animals. The first groups receive Pepcid® as the sole active agent; the second groups receive a composition comprising HMW HA as the sole active agent; the third groups receive a composition comprising CBD as the sole active agent; the fourth groups receive a composition comprising HMW HA and CBD as the active agents; and the fifth groups receive a composition comprising HMW HA, CBD, and glutathione as the active agents.
(§5) Each composition is administered for a period of twenty-eight (28) days, BID. The owner observes potential reduction of symptoms at the end of treatment and rates the reduction as no reduction (score of 0), mild reduction (score of 1), moderate reduction (score of 2), significant reduction (score of 3), or resolution of symptoms (score of 4).
The following canine scores are observed and the results depicted in FIG. 3a: […]

[4] = tested on: cats suffering from GI-specific inflammation; experiment: Example 11: GI-specific inflammation, owner-rated symptom reduction; settings: species not given, symptom reduction score 0 to 4
From the text: as §3
as §4, with “and CBD Complex as the” for “and CBD as the”, “HMW HA, CBD Complex, and glutathione” for “HMW HA, CBD, and glutathione”
as §5

[5] = tested on: cats suffering from GI-specific inflammation; experiment: Example 3: GI-specific inflammation, owner-rated symptom reduction (feline); settings: symptom reduction score 0 (no reduction) to 4 (resolution of symptoms)
From the text: as §3, §4, §5
The following feline scores are observed and the results depicted in FIG. 3b: […]

[6] = tested on: dogs suffering from GI-specific inflammation; experiment: Example 11: GI-specific inflammation, owner-rated symptom reduction (canine, CBD Complex); settings: canine (FIG. 11a), symptom reduction score 0 (no reduction) to 4 (resolution of symptoms)
From the text: as §3
as §4, with “and CBD Complex as the” for “and CBD as the”, “HMW HA, CBD Complex, and glutathione” for “HMW HA, CBD, and glutathione”
as §5

[7] = tested on: dogs suffering from osteoarthritis; experiment: Example 9: pain relief and side effects in canine osteoarthritis (CBD Complex); settings: dogs with osteoarthritis, 4 weeks of administration, group average
From the text: (§6) This example examines the ability of various compositions to minimize pain and examines the level of adverse side effects of each composition.
(§7) At the outset of the study, participants receive a full physical examination, including weight measurement, thigh circumference, and CBC/blood chemistries. Because osteoarthritis is not only a disease of pain, but one characterized by behavioral, appetite, anxiety/aggression, family socialization, and sleep aberrations, the pet's owners are familiarized with the pain scale (canine orthopedic index) and additional behavioral assessment log.
(§8) The patient group is twenty-four dogs suffering from osteoarthritis, broken into eight groups of three dogs. The first group receives a control composition with no active agent; the second group receives a composition comprising HA as the sole active agent; the third group receives a composition comprising HMW HA as the sole active agent; the fourth group receives a composition comprising CBD as the sole active agent; the fifth group receives a composition comprising HA and CBD as the active agents; the sixth group receives a composition comprising HMW HA and CBD Complex as the active agents; the seventh group receives a composition comprising Rimadyl as the active agent; and the eighth group receives a composition comprising Meloxicam as the active agent.
(§9) Each composition is administered for a period of four (4) weeks. The owner completes the electronic log questionnaire each week. At the end of the 4-week study, participants have another full physical examination, including weight measurement, thigh circumference, and CBC/blood chemistries, with an exit interview of the owners to gain final impressions.
Each group is evaluated for pain scores and the scores averaged. The following scores are observed and the results depicted in FIG. 9: […]

[8] = tested on: dogs suffering from osteoarthritis; experiment: Example 1: pain relief and side effects in canine osteoarthritis; settings: dogs with osteoarthritis, 4 weeks of administration, group average
From the text: as §6, §7
as §8, with “CBD” for “CBD Complex”
as §9
Each group is evaluated for pain scores and the scores averaged. The following scores are observed and the results depicted in FIG. 1: […]

[9] = tested on: dogs suffering from heart failure; experiment: Example 7: heart failure in dogs; settings: heart failure scale 1 (few to no clinical signs) to 10 (severe)
From the text: This example examines the ability of embodiments of the invention versus enalapril to treat heart failure.
The patient group is twenty-four dogs suffering from heart failure.
The patient group is broken into six groups of four dogs. The first group receives enalapril as the sole active agent; the second group receives a composition comprising enalapril and Lasix®; the third group receives a composition comprising HMW HA as the sole active agent; the fourth group receives a composition comprising CBD as the sole active agent; the fifth group receives a composition comprising HMW HA and CBD as the active agents; and the sixth group receives a composition comprising HMW HA, CBD, liposomal CoQ10, hawthorn berry, and ginko biloba as the active agents.
Each composition is administered for a period of ninety (90) days, BID. Each animal is evaluated on days 0 (“Initial Score”), 30, 60, and 90 (“Final Score”) of treatment. The results are averaged and characterized on a scale of 1 (few to no clinical signs of heart failure) to 10 (severe heart failure).
The following canine scores are observed and the results depicted in FIG. 7: […]

[10] = tested on: dogs with a history of severe, chronic skin issues, atopy, pruritis, yeast overgrowth, and/or infection; experiment: Example 8: skin conditions (itch score) and side effects in dogs; set-up: Average Side Effect Score: scale not given here
From the text: (§10) This example examines the ability of embodiments of the invention versus prednisone to treat skin conditions.
(§11) The patient group is twenty-four dogs with a history of severe, chronic skin issues, atopy, pruritis, yeast overgrowth, and/or infection, as diagnosed by their referring veterinarian. The patient group is broken into six groups of four animals. The first group receives prednisone as the sole active agent; the second group receives a composition comprising prednisone and HMW HA as the active agents; the third group receives a composition comprising HMW HA as the sole active agent; the fourth group receives a composition comprising CBD as the sole active agent; the fifth group receives a composition comprising HMW HA and CBD as the active agents; and the sixth group receives a composition comprising HMW HA, CBD, quercetin, and nettles as the active agents.
(§12) Each composition is administered for a period of sixty (60) days, BID. Each dog is evaluated on days 0 (“Initial Score”), 20, 40, and 60 (“Final Score”) of treatment. The results are averaged and characterized on a scale of 0 (no itching—normal dog), 2 (very mild itching—only occasional episodes), 4 (mild itching), 6 (moderate itching—regular episodes), 8 (severe itching—prolonged episodes), to 10 (extremely severe itching—almost continuous).
The following scores are observed and the results depicted in FIG. 8: […]

[11] = tested on: dogs with a history of severe, chronic skin issues, atopy, pruritis, yeast overgrowth, and/or infection; experiment: Example 16: skin conditions (itch score) and side effects in dogs (CBD Complex); settings: dogs with skin conditions; 60 days BID
From the text: as §10
as §11, with “and CBD Complex as the” for “and CBD as the”, “HMW HA, CBD Complex, quercetin, and” for “HMW HA, CBD, quercetin, and”
as §12

Q: How did the “Average Initial Score” value ([1]; day 0 (before treatment)) turn out when `C#CCN(C)[C@H](C)Cc1ccccc1` [Anipryl ®, Selegiline] was run?
A: The value was 3.

Q: And the “Average Final Score” value [1]?
A: Its value is 2.

Q: And the “Average Final Score” value ([1]; listed as Anipryl®)?
A: Its value is “as effective as HMW HA alone”.

Q: What about the “Average Initial Score” value ([2]; day 0 (before treatment)) of the same compound?
A: The value was 3.

Q: And the “Average Final Score” value [2]?
A: Its value is 2.

Q: What about the “Average Final Score” value ([2]; listed as Anipryl®) of the same compound?
A: Its value is “as effective as HMW HA alone”.

Q: What does the source list for `NC(N)=Nc1nc(CSCCC(N)=NS(N)(=O)=O)cs1` [Pepcid ®, Famotidine]?
A: Final Score ([3]; after 28 days BID): 1; Initial Score ([3]; initial): 0; Final Score ([4]; after 28 days BID): 1; Initial Score ([4]; initial): 0; Final Score ([5]; after 28 days BID): 1; Initial Score ([5]; initial): 0; Final Score ([6]; after 28 days BID): 1; Initial Score ([6]; initial): 0

Q: With hyaluronic acid [HA Alone] as the compound, how does the “Average Pain Score” value [7] read?
A: The value was 18.

Q: What about the “Average Side Effect Score” value [7] of the same compound?
A: Its value is 6.

Q: What about the “Average Pain Score” value ([7]; listed as HA alone) of the same compound?
A: Its value is “only slightly reduce pain”.

Q: And the “Average Side Effect Score” value ([7]; listed as HA alone)?
A: Its value is “low degree of adverse side effects”.

Q: What about the “Average Pain Score” value [8] of the same compound?
A: The value was 18.

Q: And the “Average Side Effect Score” value [8]?
A: The value was 6.

Q: What about the “Average Pain Score” value ([8]; listed as HA alone) of the same compound?
A: The value was “only slightly reduce pain”.

Q: And the “Average Side Effect Score” value ([8]; listed as HA alone)?
A: The value was “low degree of adverse side effects”.

Q: How did the “Initial Score” value ([9]; day 0) turn out when `CCOC(=O)[C@H](CCc1ccccc1)N[C@@H](C)C(=O)N1CCC[C@H]1C(=O)O` [Enalapril] was run?
A: Its value is 8.

Q: What about the “Final Score” value ([9]; day 90, BID) of the same compound?
A: Its value is 5.

Q: What does the source list for `C[C@]12C=CC(=O)C=C1CC[C@@H]1[C@@H]2C(=O)C[C@@]2(C)[C@H]1CC[C@]2(O)C(=O)CO` [Prednisone]?
A: Average Side Effect Score ([10]; dogs with skin conditions, 60 days BID): 17; Initial Itch Score ([10]; itch scale 0 (no itching) to 10 (extremely severe), day 0): 9; Final Itch Score ([10]; itch scale 0 (no itching) to 10 (extremely severe), day 60, BID): 6; Average Side Effect Score [11]: 17
